Results taken from DBAASP.
Converted amounts (≈) assume the structure as drawn. Each block holds one compound with its values, some of them ahead of it.

Legend:
Assay in all cases: ≥ marks a high value that may be exact or a test limit, other limits are often not marked, values filed in µg/mL are converted to µM
[1] = system: Staphylococcus aureus NBRC 13276
[2] = system: Escherichia coli NBRC 3972
[3] = system: Bacillus subtilis NBRC 3009
[4] = system: Staphylococcus aureus ATCC 49476
Candida albicans = system: Candida albicans
Staphylococcus aureus MR = system: Staphylococcus aureus MR
[5] = system: Pseudomonas aeruginosa ATCC 27853
[6] = system: Staphylococcus aureus NCTC 12981
[7] = system: Escherichia coli NCTC 10418
[8] = system: Staphylococcus epidermidis
[9] = system: Escherichia coli NCTC 12923
[10] = system: Klebsiella pneumoniae NCTC 13368
Escherichia coli = system: Escherichia coli
Bacillus cereus = system: Bacillus cereus
Micrococcus luteus = system: Micrococcus luteus
Streptococcus uberis = system: Streptococcus uberis
[11] = system: Pseudomonas aeruginosa NCTC 13437
Listeria innocua = system: Listeria innocua
Leuconostoc lactis = system: Leuconostoc lactis
[12] = system: Staphylococcus aureus ATCC 9144
Pasteurella multocida = system: Pasteurella multocida
Staphylococcus aureus 15 = system: Staphylococcus aureus 15
[13] = system: Enterococcus faecalis NCTC 12201
Escherichia coli UB1005 = system: Escherichia coli UB1005
[14] = system: Pseudomonas aeruginosa PAO1
[15] = system: Candida albicans NCPF 3179
Staphylococcus aureus = system: Staphylococcus aureus
[16] = system: Acinetobacter baumannii ATCC 17978
[17] = system: Enterococcus faecalis NCTC 775
Bacillus cereus C737 = system: Bacillus cereus C737
[18] = system: Batrachochytrium dendrobatidis
[19] = system: Bifidobacterium longum subsp. infantis
[20] = system: Staphylococcus aureus ATCC 29231
[21] = system: Staphylococcus aureus MW2
[22] = system: Klebsiella aerogenes ATCC 13048
[23] = system: Acinetobacter baumannii ATCC 7978
[24] = system: Cryptococcus neoformans ATCC 32264
[25] = system: Candida albicans ATCC 10231
[26] = system: Staphylococcus aureus ATCC 29213
[27] = system: Salmonella enterica subsp. enterica serovar Enteritidis
[28] = system: Staphylococcus aureus ATCC 43300
Salmonella sp. = system: Salmonella sp.
[29] = system: Escherichia coli ATCC 25922
Yersinia enterocolitica = system: Yersinia enterocolitica

Compound: CC[C@H](C)[C@H](NC(=O)[C@H](C)NC(=O)[C@H](CCCCN)NC(=O)CNC(=O)[C@H](C)NC(=O)[C@H](CO)NC(=O)[C@H](Cc1ccccc1)NC(=O)[C@H](CC(C)C)NC(=O)CNC(=O)CNC(=O)[C@@H](NC(=O)[C@@H](NC(=O)[C@H](Cc1cnc[nH]1)NC(=O)[C@H](Cc1cnc[nH]1)NC(=O)[C@@H](NC(=O)[C@@H](N)Cc1ccccc1)[C@@H](C)CC)[C@@H](C)CC)[C@@H](C)CC)C(=O)N[C@@H](Cc1cnc[nH]1)C(=O)N[C@@H](CO)C(=O)N[C@@H](CC(C)C)C(=O)N[C@H](C(=O)N[C@@H](Cc1cnc[nH]1)C(=O)N[C@@H](CCCN=C(N)N)C(=O)N[C@@H](CCCN=C(N)N)C(=O)N[C@@H](CCCN=C(N)N)C(=O)N[C@@H](CCCN=C(N)N)C(=O)O)[C@@H](C)CC [FIHHIIGGLFSAGKAIHSLIHRRRR]
MIC [4]: 11.1 µM (≈ 32 µg/mL) | MIC (Candida albicans): 88.5 µM (≈ 256 µg/mL) | MIC (Staphylococcus aureus MR): 11.1 µM (≈ 32 µg/mL) | MIC [5]: 88.5 µM (≈ 256 µg/mL)

Compound: NCCCC[C@H](NC(=O)[C@H](Cc1ccccc1)NC(=O)[C@H](CCCCN)NC(=O)[C@@H](N)Cc1ccccc1)C(=O)N[C@@H](Cc1ccccc1)C(N)=O [FKFKF]
MIC [6]: ≥ 179 µM | MIC [7]: ≥ 179 µM

Compound: CC[C@H](C)[C@H](NC(=O)[C@H](CCC(N)=O)NC(=O)[C@H](Cc1cnc[nH]1)NC(=O)[C@@H](NC(=O)[C@@H]1CCCN1C(=O)[C@H](CC(N)=O)NC(=O)[C@H](CC(C)C)NC(=O)[C@@H](N)CC(C)C)[C@@H](C)O)C(=O)N[C@@H](Cc1ccc(O)cc1)C(=O)N1CCC[C@H]1C(=O)N[C@H](C(=O)N[C@H](C(=O)N[C@@H](CCC(N)=O)C(=O)N1CCC[C@H]1C(=O)N[C@@H](CC(C)C)C(=O)N[C@@H](C)C(=O)N1CCC[C@H]1C(=O)N[C@H](C(=O)N[C@@H](Cc1cnc[nH]1)C(=O)N[C@@H](CC(N)=O)C(=O)N1CCC[C@H]1C(=O)N[C@H](C(=O)N[C@@H](CO)C(=O)O)[C@@H](C)CC)C(C)C)[C@@H](C)O)C(C)C [LLNPTHQIYPVTQPLAPVHNPIS]
MIC (Escherichia coli): > 1180 µM | MIC [19]: ≥ 1180 µM | MIC (Staphylococcus aureus): > 1180 µM

Compound: CC[C@H](C)[C@H](NC(=O)[C@H](CCCCN)NC(=O)[C@H](Cc1c[nH]c2ccccc12)NC(=O)[C@@H](N)CC(C)C)C(=O)NCC(=O)N[C@@H](CCCCN)C(=O)N[C@@H](CCCCN)C(=O)N[C@H](C(=O)N[C@@H](Cc1c[nH]c2ccccc12)C(=O)N[C@@H](CCCN=C(N)N)C(=O)N[C@H](C(=O)NCC(=O)O)C(C)C)[C@@H](C)CC [LWKIGKKIWRVG]
MIC [20]: ≥ 86.3 µM | MIC [21]: ≥ 86.3 µM | MIC [22]: ≥ 86.3 µM | MIC [23]: ≥ 86.3 µM

Compound: NC(=O)CC[C@H](NC(=O)[C@H](Cc1c[nH]c2ccccc12)NC(=O)[C@H](Cc1c[nH]c2ccccc12)NC(=O)[C@H](CCCN=C(N)N)NC(=O)[C@H](CCCN=C(N)N)NC(=O)[C@H](Cc1c[nH]c2ccccc12)NC(=O)[C@H](CCC(N)=O)NC(=O)[C@@H](N)CCCN=C(N)N)C(=O)N[C@@H](CCCN=C(N)N)C(N)=O [RQWRRWWQR]
MIC [24]: 12.5 µM (≈ 18.2 µg/mL) | MIC (Escherichia coli): 8.58 µM (≈ 12.5 µg/mL) | MIC [25]: 50 µM (≈ 72.8 µg/mL) | MIC [26]: 34.3 µM (≈ 50 µg/mL) | MIC [27]: 8.58 µM (≈ 12.5 µg/mL) | MIC [28]: 17.2 µM (≈ 25 µg/mL) | MIC (Salmonella sp.): 17.2 µM (≈ 25 µg/mL) | MIC [29]: 17.2 µM (≈ 25 µg/mL) | MIC (Yersinia enterocolitica): 17.2 µM (≈ 25 µg/mL)

Results, then the compound that gave them:

MIC [1]: ≥ 35.4 µM | MIC [2]: ≥ 100 µM | MIC [3]: 1.8 µM (≈ 3.08 µg/mL)
Compound: CC[C@H](C)[C@H](NC(=O)[C@H](C)NC(=O)[C@H](CO)NC(=O)[C@@H](NC(=O)[C@H](CC(C)C)NC(=O)CNC(=O)CNC(=O)[C@@H](NC(=O)[C@H](CC(C)C)NC(=O)[C@H](CO)NC(=O)[C@@H]1CCCN1C(=O)[C@H](CC(C)C)NC(=O)[C@H](Cc1ccccc1)NC(=O)[C@H](Cc1ccccc1)NC(=O)[C@@H](N)Cc1ccccc1)[C@@H](C)CC)C(C)C)C(=O)N[C@@H](CCCCN)C(N)=O [FFFLPSLIGGLVSAIK]

MIC [8]: ≥ 60.6 µM | MIC [9]: 9.7 µM (≈ 16 µg/mL) | MIC [10]: ≥ 38.8 µM | MIC (Escherichia coli): > 60.6 µM | MIC (Bacillus cereus): 30.3 µM (≈ 50 µg/mL) | MIC (Micrococcus luteus): ≥ 60.6 µM | MIC (Streptococcus uberis): ≥ 60.6 µM | MIC [11]: ≥ 77.6 µM | MIC (Listeria innocua): 30.3 µM (≈ 50 µg/mL) | MIC (Leuconostoc lactis): 7.27 µM (≈ 12 µg/mL) | MIC [12]: 4.85 µM (≈ 8 µg/mL) | MIC (Pasteurella multocida): ≥ 60.6 µM | MIC (Staphylococcus aureus 15): 19.4 µM (≈ 32 µg/mL) | MIC [13]: ≥ 38.8 µM | MIC (Escherichia coli UB1005): ≥ 38.8 µM | MIC [14]: > 77.6 µM | MIC [15]: 9.7 µM (≈ 16 µg/mL) | MIC (Staphylococcus aureus): 30.3 µM (≈ 50 µg/mL) | MIC [16]: 4.85 µM (≈ 8 µg/mL) | MIC [17]: 27.4 µM (≈ 45.2 µg/mL) | MIC (Bacillus cereus C737): ≥ 77.6 µM
Compound: CC[C@H](C)[C@H](NC(=O)[C@H](CC(=O)O)NC(=O)[C@H](Cc1ccccc1)NC(=O)[C@H](CC(C)C)NC(=O)CN)C(=O)N[C@H](C(=O)N[C@@H](CCCCN)C(=O)N[C@@H](CCCCN)C(=O)N[C@H](C(=O)N[C@H](C(=O)NCC(=O)N[C@@H](C)C(=O)N[C@@H](Cc1ccccc1)C(=O)NCC(=O)N[C@@H](CO)C(=O)N[C@@H](CC(C)C)C(N)=O)C(C)C)C(C)C)C(C)C [GLFDIVKKVVGAFGSL]

MIC [8]: 30.9 µM (≈ 50 µg/mL) | MIC (Escherichia coli): > 61.9 µM | MIC (Bacillus cereus): 30.9 µM (≈ 50 µg/mL) | MIC (Micrococcus luteus): ≥ 61.9 µM | MIC (Streptococcus uberis): ≥ 61.9 µM | MIC [18]: ≥ 200 µM | MIC (Listeria innocua): 3.71 µM (≈ 6 µg/mL) | MIC (Leuconostoc lactis): 3.71 µM (≈ 6 µg/mL) | MIC (Pasteurella multocida): ≥ 61.9 µM | MIC (Staphylococcus aureus): > 61.9 µM
Compound: CC[C@H](C)[C@H](NC(=O)[C@H](CC(=O)O)NC(=O)[C@H](CC(C)C)NC(=O)[C@H](CC(C)C)NC(=O)CN)C(=O)N[C@H](C(=O)N[C@@H](CCCCN)C(=O)N[C@@H](CCCCN)C(=O)N[C@H](C(=O)N[C@H](C(=O)NCC(=O)N[C@@H](C)C(=O)N[C@@H](Cc1ccccc1)C(=O)NCC(=O)N[C@@H](CO)C(=O)N[C@@H](CC(C)C)C(N)=O)C(C)C)C(C)C)C(C)C [GLLDIVKKVVGAFGSL]
